Reference: article PMC11744668, “2-Cyanopyrimidine-Containing Molecules for N-Terminal Selective Cyclization of Phage-Displayed Peptides” (ACS Chemical Biology, 2025)
Entries after “also recorded” stand apart in the source; their conditions may differ.

Tests used:
[1] = system: phages (12mer phagemid library); experiment: Phage infectivity (toxicity) assay, colony-forming unit assay; details: 50–200 μM linker, 22 or 37 °C, 3 or 24 h, 1 mM TCEP; cfu assay, n = 3
Procedure: For all experiments, phages were quantified via a colony-forming unit assay. In this assay, serial dilutions of the phage solution were prepared in 2× YT media, and 10 μL of each dilution was added to 90 μL of log-phase E. coli ER2738. Following the addition of the phage dilutions, the culture was incubated at 37 °C for 45 min, and then 10 μL was spotted in triplicate onto agar selection plates containing either 100 μg/mL ampicillin and 10 μg/mL tetracycline, which were incubated at 37 °C overnight. The following day, colonies in each spot were counted, and this number was used to calculate the number of colony-forming units in the solution.
The purified 12mer phagemid library in binding buffer was incubated with 1 mM TCEP at 37 °C for 30 min. The reduced phages were then reacted with linkers (pCAmCP or mCAmCP) or DMSO equivalents at varying concentrations (50, 100, and 200 μM) and temperatures (22 or 37 °C) for varying times (3 or 24 h). Following incubation under the various conditions, the phage solutions were then titered by using the previously described colony-forming unit assay.

[2] = system: CA5C-sfGFP; experiment: Cyclization of CA5C-sfGFP with linkers (LC-ESI-MS); details: 100 μM linker, PBS pH 7.4, 1 mM TCEP; for cyclization of CA5C-sfGFP: 3 h, 22 °C (RT), 500 nM protein; for cyclization of CA5C-sfGFP, optimized (in words): 16 h
Procedure: The designed organic linkers were tested for their ability to cyclize a CA5C peptide expressed as an N-terminal fusion to sfGFP (CA5C-sfGFP). Following reduction of the protein with 1 mM TCEP for 30 min, 100 μM compounds were reacted with the reduced CA5C-sfGFP for 3 h in PBS (pH 7.4). Following the reaction, the protein was analyzed via electrospray ionization mass spectrometry (ESI-MS) analysis to determine the desired adduct and any potential side reactions that occurred. […] This is likely due to the electron withdrawing effects of the nitrogen atoms adjacent to the nitrile in the 2-cyanopyrimidine derivatives. […] Following previously established Bayesian deconvolution of the mass spectra,[23] protein masses from each reaction (MW = 28,399 Da) corresponded well with that of the expected cyclic product (MW = 28,399 Da). […] This observed mass matches a TCEP-conjugated product resulting from a previously reported competing phospha-Michael addition of TCEP to the acrylamide moiety.[24] This product has a TCEP-functionalized linker that is nonreactive toward the internal cysteine (Figure 2A,B). Following these initial studies, we then further optimized the cyclization of CA5C-sfGFP using pCAmCP and mCAmCP by varying the reaction time, temperature, and concentration of linkers (Figure 2C).
Purified CA5C-sfGFP was diluted to 500 nM in PBS (pH 7.4) containing 1 mM TCEP and left to incubate for 30 min at 37 °C. Linker (100 μM final concentration) or equivalent amounts of DMSO were then added to the solution, and it reacted at varying times (3 or 16 h) and temperatures (22 or 37 °C). All initial tests for reactivity were performed at 22 °C for 3 h, while linkers pCAmCP and mCAmCP were optimized with the additional conditions. The reaction mixtures were then concentrated and exchanged to ammonium bicarbonate (50 mM, pH 8.0) using an Amicon centrifugal filter (MWCO: 10 kDa). Samples were analyzed using a QExactive Orbitrap LC–MS System (Thermo Fisher) and deconvoluted using UniDec software.[23]

[3] = Specificity of linker reaction with BCP peptide (nucleophilic residues, no internal cysteine); details: 500 µM BCP, 550 µM linker, 50 mM NH4HCO3, 1.2 mM TCEP, pH 7.5, 4 h
Excerpt: While pCAmCP and mCAmCP gave efficient cyclization of the peptide fusion of sfGFP, we looked to further investigate the specificity of the reaction using peptide kinetic assays. To do this, we first established reactivity of the compounds with a model peptide (CGK-5, Figures 3A and S16) that was composed of two cysteines flanking a region tuned for solubility in buffer (GGKGG) and with a tryptophan residue on the C-terminus for UV absorbance. […] To test the specificity of the reaction for the N-terminal cysteine, we synthesized a peptide analogue (CGK-5Abu, Figures 3D–F and S17) that contained 2-aminobutyric acid in place of the N-terminal cysteine. […] Since these reactions occurred at 500 μM of peptide to allow for analysis on the HPLC, we envision this difference will likely be exaggerated when using lower peptide/protein concentrations. Although it is unlikely at neutral pH, the chloroacetamide moiety can possibly react with nucleophilic amino acids other than cysteine. To defuse this concern, we designed a peptide containing a variety of possibly nucleophilic residues (serine, arginine, tyrosine, histidine, and lysine, but not an internal cysteine) adjacent to the N-terminal cysteine (BCP, Figure S18) and let the peptide react with pCAmCP or mCAmCP. […]

Row | Structure (SMILES) | phage toxicity (in words) [1] | cyclization of CA5C-sfGFP [2] | cyclization of CA5C-sfGFP, optimized (in words) [2] | specificity of chloroacetamide toward nucleophilic residues other than cysteine (in words) [3]
1 | N#Cc1nccc(NC(=O)CCl)n1 [mCAmCP, 2-chloro-N-(2-cyanopyrimidin-4-yl)acetamide] | No toxicity was observed under any of the conditions tested; also recorded: without hindering infection | ~70% | nearly complete cyclization of CA5C-sfGFP with no significant side reactions observed | the chloroacetamide was left intact, with the only observed side reaction being the addition of TCEP to the chloroacetamide
2 | N#Cc1ncc(NC(=O)CCl)cn1 [pCAmCP, 2-chloro-N-(2-cyanopyrimidin-5-yl)acetamide] | No toxicity was observed under any of the conditions tested; also recorded: without hindering infection | 50% | nearly complete cyclization of CA5C-sfGFP with no significant side reactions observed | the chloroacetamide was left intact, with the only observed side reaction being the addition of TCEP to the chloroacetamide
